The subject of assay [1] is Osteoblast. As to the kind of experiment: Increase in ALP activity in mouse primary osteoblasts at 1 uM relative to control. It counts as functional.
In assay [2] the test system is Osteoblast. As to the kind of experiment: Increase in ALP activity in mouse primary osteoblasts at 20 uM relative to control. Type of assay: functional.
Assay [3] deals with Osteoblast. As to the kind of experiment: Increase in ALP activity in mouse primary osteoblasts at 10 uM relative to control. It counts as functional.
The subject of assay [4] is Osteoblast. As to the kind of experiment: Cytotoxicity against mouse primary osteoblasts at 20 uM by MTT assay. It counts as functional, cell-based. For orientation: Formazan colour is commonly taken as a measure of viable cells.
Assay [5] deals with Osteoblast. As to the kind of experiment: Effect on mineralization in mouse primary osteoblasts by measuring calcium deposition. It counts as functional, cell-based.
The test system of assay [6] is Osteoblast. As to the kind of experiment: Increase in collagen synthesis in mouse primary osteoblasts. It counts as functional, cell-based.
In assay [7] the test system is Osteoblast. As to the kind of experiment: Increase in collagen synthesis in mouse primary osteoblasts at 10 uM relative to control. Type of assay: functional.

Consider seven molecules from ChEMBL document CHEMBL1147800, “Osteoblast differentiation stimulating activity of biflavonoids from Cephalotaxus koreana” (2006).

Activity calls are given as the source filed them. No cut-off for these calls is given here.

As to `COc1cc(O)c2c(=O)cc(-c3ccc(OC)c(-c4c(OC)cc(O)c5c(=O)cc(-c6ccc(O)cc6)oc45)c3)oc2c1`, the Activity with Osteoblast [1] came to 108.4%; in the assay on Osteoblast [2] it was 122%; with Osteoblast [3], 129.7%.
With `COc1ccc(-c2cc(=O)c3c(O)cc(O)cc3o2)cc1-c1c(OC)cc(O)c2c(=O)cc(-c3ccc(O)cc3)oc12`, the Activity is on record as 101.1% in the assay on Osteoblast [1], 73.5% in the assay with Osteoblast [2] and 113% in the assay with Osteoblast [3]. Moreover, in the assay on Osteoblast [4], the outcome was Active.
`COc1ccc(-c2cc(=O)c3c(O)cc(OC)c(-c4cc(-c5cc(=O)c6c(O)cc(OC)cc6o5)ccc4OC)c3o2)cc1`: the Activity with Osteoblast [1] was determined as 105.1%; in the assay on Osteoblast [2], 149.5%; in the assay on Osteoblast [3], 147.3%. Also, the outcome with Osteoblast [5] and with Osteoblast [6] was Active.
For the molecule `COc1ccc(-c2cc(=O)c3c(O)cc(O)cc3o2)cc1-c1c(O)cc(O)c2c(=O)cc(-c3ccc(O)cc3)oc12` [BILOBETIN], the results for the Activity in the assay on Osteoblast [1], in the assay with Osteoblast [2] and with Osteoblast [3] were 100.9%, 130.6% and 131.9%, respectively. Further, in the assay on Osteoblast [5], the outcome was Active.
For `O=c1c(-c2ccc(O)cc2)coc2cc(O)ccc12` [DAIDZEIN], the Activity in the assay with Osteoblast [1] is 107.8%; in the assay on Osteoblast [2] it was 128.1%; in the assay with Osteoblast [3], 132.8%.
As to `COc1cc(O)c2c(=O)cc(-c3ccc(OC)c(-c4c(O)cc(O)c5c(=O)cc(-c6ccc(O)cc6)oc45)c3)oc2c1` [GINKGETIN], the values for the Activity in the assay on Osteoblast [1], in the assay on Osteoblast [2] and in the assay on Osteoblast [3] were 116.8%, 39.9% and 69.3%, respectively. Moreover, the result in the assay on Osteoblast [4] was Active.
In the case of `COc1ccc(-c2cc(=O)c3c(O)cc(O)c(-c4cc(-c5cc(=O)c6c(O)cc(OC)cc6o5)ccc4OC)c3o2)cc1` [SCIADOPITISIN], the Activity in the assay on Osteoblast [1] came out at 121.1%; with Osteoblast [2], 153%; in the assay on Osteoblast [7], 180%; with Osteoblast [3], 149%. Further, the result in the assay on Osteoblast [5] was Active.
